Key:
[1] = test system: Mast/stem cell growth factor receptor Kit (Homo sapiens), P10721 [D816H]
[2] = test system: Tyrosine-protein kinase ABL1 (Homo sapiens), P00519 [Y253F]
[3] = target: Muscarinic acetylcholine receptor M3 (Homo sapiens) (UniProt P20309); conditions: Compound concentration 10.0 uM
[4] = target: Dual specificity mitogen-activated protein kinase kinase 7 (Homo sapiens) (UniProt O14733)
[5] = target: Cyclin-dependent kinase 3 (Homo sapiens) (UniProt Q00526)
[6] = target: Activated CDC42 kinase 1 (Homo sapiens) (UniProt Q07912)
[7] = target: Megakaryocyte-associated tyrosine-protein kinase (Homo sapiens) (UniProt P42679)
[8] = test system: Phosphatidylinositol 4,5-bisphosphate 3-kinase catalytic subunit alpha isoform (Homo sapiens), P42336 [Q546K]
[9] = target: Sodium-dependent dopamine transporter (Homo sapiens) (UniProt Q01959); conditions: Compound concentration 10.0 uM
[10] = target: Tyrosine-protein kinase HCK (Homo sapiens) (UniProt P08631)
[11] = target: Aurora kinase C (Homo sapiens) (UniProt Q9UQB9)
[12] = target: Cyclin-dependent kinase-like 5 (Homo sapiens) (UniProt O76039)
[13] = target: Serine/threonine-protein kinase MAK (Homo sapiens) (UniProt P20794)
[14] = target: Serine/threonine-protein kinase STK11 (Homo sapiens) (UniProt Q15831)
[15] = target: Mitogen-activated protein kinase kinase kinase 15 (Homo sapiens) (UniProt Q6ZN16)
[16] = target: Serine/threonine-protein kinase pim-1 (Homo sapiens) (UniProt P11309)
[17] = target: Serine/threonine-protein kinase SIK3 (Homo sapiens) (UniProt Q9Y2K2)
[18] = target: Tyrosine-protein kinase Fyn (Homo sapiens) (UniProt P06241)
[19] = test system: Epidermal growth factor receptor (Homo sapiens), P00533 [UNDEFINED MUTATION]
[20] = target: Serine/threonine-protein kinase MRCK gamma (Homo sapiens) (UniProt Q6DT37)
[21] = target: LIM domain kinase 2 (Homo sapiens) (UniProt P53671)
[22] = target: Serine/threonine-protein kinase DCLK2 (Homo sapiens) (UniProt Q8N568)
[23] = target: Dual specificity protein kinase CLK2 (Homo sapiens, UniProt P49760)
[24] = target: Receptor tyrosine-protein kinase erbB-4 (Homo sapiens) (UniProt Q15303)
[25] = target: Serine/threonine-protein kinase 32A (Homo sapiens) (UniProt Q8WU08)
[26] = target: Ribosomal protein S6 kinase alpha-1 (Homo sapiens) (UniProt Q15418)
[27] = target: Mitogen-activated protein kinase 11 (Homo sapiens) (UniProt Q15759)
[28] = target: Cyclin-dependent kinase 19 (Homo sapiens) (UniProt Q9BWU1)
[29] = target: Mitogen-activated protein kinase kinase kinase 10 (Homo sapiens) (UniProt Q02779)
[30] = target: Dual specificity mitogen-activated protein kinase kinase 1 (Homo sapiens) (UniProt Q02750)
[31] = target: Cyclin-dependent kinase 4 (Homo sapiens) (UniProt P11802)
[32] = target: Cyclin-dependent kinase 11B (Homo sapiens) (UniProt P21127)
[33] = target: 5'-AMP-activated protein kinase catalytic subunit alpha-2 (Homo sapiens) (UniProt P54646)
[34] = target: Alpha-1A adrenergic receptor (Homo sapiens) (UniProt P35348); conditions: Compound concentration 10.0 uM
[35] = target: Misshapen-like kinase 1 (Homo sapiens) (UniProt Q8N4C8)
[36] = target: Serine/threonine-protein kinase 17A (Homo sapiens) (UniProt Q9UEE5)
[37] = target: Myosin light chain kinase, smooth muscle (Homo sapiens) (UniProt Q15746)
[38] = test system: Epidermal growth factor receptor (Homo sapiens), P00533 [L858R,T790M]
[39] = target: Serine/threonine-protein kinase Nek7 (Homo sapiens) (UniProt Q8TDX7)
[40] = test system: Phosphatidylinositol 4,5-bisphosphate 3-kinase catalytic subunit alpha isoform (Homo sapiens), P42336 [E545A]
[41] = target: Ephrin type-B receptor 4 (Homo sapiens) (UniProt P54760)
[42] = target: Cyclin-dependent kinase 9 (Homo sapiens) (UniProt P50750)
[43] = test system: Epidermal growth factor receptor (Homo sapiens), P00533 [L861Q]
[44] = target: Macrophage-stimulating protein receptor (Homo sapiens) (UniProt Q04912)
[45] = test system: Phosphatidylinositol 4,5-bisphosphate 3-kinase catalytic subunit alpha isoform (Homo sapiens), P42336 [H1047Y]
[46] = Compound concentration 1000.0 nM
[47] = Compound concentration 100.0 nM

Sequence of Cyclin-dependent kinase-like 5 (Homo sapiens) (O76039 whole entry): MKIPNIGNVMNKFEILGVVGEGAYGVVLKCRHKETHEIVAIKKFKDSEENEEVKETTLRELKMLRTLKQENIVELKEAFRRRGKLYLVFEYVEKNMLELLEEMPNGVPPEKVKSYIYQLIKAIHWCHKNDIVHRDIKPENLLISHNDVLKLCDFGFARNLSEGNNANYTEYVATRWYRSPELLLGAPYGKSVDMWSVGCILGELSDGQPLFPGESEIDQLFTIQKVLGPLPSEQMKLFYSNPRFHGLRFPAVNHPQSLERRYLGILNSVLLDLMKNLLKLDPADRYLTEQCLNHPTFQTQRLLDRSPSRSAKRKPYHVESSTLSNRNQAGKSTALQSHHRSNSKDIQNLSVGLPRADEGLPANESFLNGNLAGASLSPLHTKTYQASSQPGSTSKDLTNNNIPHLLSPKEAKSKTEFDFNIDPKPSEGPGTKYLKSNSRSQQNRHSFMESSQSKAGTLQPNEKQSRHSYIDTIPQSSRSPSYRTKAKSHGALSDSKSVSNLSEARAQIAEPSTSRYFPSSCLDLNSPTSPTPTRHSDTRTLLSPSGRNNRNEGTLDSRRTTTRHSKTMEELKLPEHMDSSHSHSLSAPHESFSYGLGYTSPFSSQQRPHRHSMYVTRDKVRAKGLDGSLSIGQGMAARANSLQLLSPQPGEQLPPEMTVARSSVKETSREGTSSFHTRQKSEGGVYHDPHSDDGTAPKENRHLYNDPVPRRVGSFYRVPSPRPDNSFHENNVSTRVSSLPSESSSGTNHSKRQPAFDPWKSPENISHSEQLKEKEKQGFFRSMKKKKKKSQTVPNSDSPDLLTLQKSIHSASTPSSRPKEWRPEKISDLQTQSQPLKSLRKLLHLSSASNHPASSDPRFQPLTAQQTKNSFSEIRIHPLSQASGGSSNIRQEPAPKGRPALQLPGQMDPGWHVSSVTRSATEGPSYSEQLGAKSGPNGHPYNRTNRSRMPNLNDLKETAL
Sequence of Phosphatidylinositol 4,5-bisphosphate 3-kinase catalytic subunit alpha isoform (Homo sapiens), P42336 [H1047Y] (P42336 whole entry H1047Y, canonical isoform): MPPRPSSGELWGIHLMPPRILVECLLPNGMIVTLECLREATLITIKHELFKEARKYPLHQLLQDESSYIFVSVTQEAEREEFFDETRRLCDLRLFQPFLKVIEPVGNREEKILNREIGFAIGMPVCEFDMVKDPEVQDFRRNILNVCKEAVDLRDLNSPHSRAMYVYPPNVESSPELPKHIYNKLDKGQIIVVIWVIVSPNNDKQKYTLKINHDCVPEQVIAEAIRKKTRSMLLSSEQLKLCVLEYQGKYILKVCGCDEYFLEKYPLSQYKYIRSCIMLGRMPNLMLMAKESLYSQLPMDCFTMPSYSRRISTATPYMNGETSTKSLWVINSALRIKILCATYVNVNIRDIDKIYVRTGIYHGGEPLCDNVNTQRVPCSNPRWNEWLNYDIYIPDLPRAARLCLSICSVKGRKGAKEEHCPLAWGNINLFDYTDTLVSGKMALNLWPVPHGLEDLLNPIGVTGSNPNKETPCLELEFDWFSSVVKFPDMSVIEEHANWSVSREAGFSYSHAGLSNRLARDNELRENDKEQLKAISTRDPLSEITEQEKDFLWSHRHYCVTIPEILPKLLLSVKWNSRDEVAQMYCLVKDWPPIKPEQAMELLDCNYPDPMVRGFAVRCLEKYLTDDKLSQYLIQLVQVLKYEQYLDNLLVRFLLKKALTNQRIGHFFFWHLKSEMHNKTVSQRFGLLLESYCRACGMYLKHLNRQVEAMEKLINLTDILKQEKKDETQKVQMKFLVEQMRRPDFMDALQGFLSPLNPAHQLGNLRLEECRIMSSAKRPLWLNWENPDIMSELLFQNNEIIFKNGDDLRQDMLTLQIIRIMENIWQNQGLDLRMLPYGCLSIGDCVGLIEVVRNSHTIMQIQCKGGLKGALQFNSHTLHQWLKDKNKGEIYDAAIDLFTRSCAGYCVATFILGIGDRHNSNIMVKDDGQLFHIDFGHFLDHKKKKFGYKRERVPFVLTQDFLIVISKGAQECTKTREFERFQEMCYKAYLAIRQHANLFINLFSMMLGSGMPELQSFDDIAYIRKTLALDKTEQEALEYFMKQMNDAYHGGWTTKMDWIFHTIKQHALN
Sequence of Mast/stem cell growth factor receptor Kit (Homo sapiens), P10721 [D816H] (P10721 whole entry D816H): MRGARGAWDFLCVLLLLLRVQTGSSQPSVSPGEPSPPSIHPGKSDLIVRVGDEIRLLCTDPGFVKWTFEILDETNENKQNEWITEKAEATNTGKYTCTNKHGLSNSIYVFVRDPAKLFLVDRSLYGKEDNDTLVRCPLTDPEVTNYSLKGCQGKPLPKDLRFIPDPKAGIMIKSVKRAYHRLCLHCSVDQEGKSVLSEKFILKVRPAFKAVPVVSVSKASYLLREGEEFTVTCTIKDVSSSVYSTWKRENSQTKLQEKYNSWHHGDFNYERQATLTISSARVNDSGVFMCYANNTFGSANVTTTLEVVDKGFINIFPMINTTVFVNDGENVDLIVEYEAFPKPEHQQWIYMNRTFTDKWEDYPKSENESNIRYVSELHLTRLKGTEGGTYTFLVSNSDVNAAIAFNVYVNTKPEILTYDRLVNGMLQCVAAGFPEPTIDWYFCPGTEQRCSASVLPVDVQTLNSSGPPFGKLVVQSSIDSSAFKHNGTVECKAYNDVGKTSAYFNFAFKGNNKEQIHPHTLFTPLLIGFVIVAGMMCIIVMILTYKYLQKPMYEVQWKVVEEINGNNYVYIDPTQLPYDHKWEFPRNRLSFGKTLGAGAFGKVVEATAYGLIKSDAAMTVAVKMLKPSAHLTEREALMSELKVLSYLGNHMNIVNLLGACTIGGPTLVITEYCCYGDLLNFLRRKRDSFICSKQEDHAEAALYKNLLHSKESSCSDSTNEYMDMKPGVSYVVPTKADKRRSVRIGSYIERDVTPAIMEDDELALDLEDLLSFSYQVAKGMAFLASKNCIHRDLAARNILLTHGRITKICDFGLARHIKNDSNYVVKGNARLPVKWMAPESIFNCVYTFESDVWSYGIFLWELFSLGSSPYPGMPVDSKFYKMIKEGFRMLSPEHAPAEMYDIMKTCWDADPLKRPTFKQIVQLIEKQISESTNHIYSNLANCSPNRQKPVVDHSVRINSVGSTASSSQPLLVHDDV
Sequence of Cyclin-dependent kinase 11B (Homo sapiens) (P21127 whole entry): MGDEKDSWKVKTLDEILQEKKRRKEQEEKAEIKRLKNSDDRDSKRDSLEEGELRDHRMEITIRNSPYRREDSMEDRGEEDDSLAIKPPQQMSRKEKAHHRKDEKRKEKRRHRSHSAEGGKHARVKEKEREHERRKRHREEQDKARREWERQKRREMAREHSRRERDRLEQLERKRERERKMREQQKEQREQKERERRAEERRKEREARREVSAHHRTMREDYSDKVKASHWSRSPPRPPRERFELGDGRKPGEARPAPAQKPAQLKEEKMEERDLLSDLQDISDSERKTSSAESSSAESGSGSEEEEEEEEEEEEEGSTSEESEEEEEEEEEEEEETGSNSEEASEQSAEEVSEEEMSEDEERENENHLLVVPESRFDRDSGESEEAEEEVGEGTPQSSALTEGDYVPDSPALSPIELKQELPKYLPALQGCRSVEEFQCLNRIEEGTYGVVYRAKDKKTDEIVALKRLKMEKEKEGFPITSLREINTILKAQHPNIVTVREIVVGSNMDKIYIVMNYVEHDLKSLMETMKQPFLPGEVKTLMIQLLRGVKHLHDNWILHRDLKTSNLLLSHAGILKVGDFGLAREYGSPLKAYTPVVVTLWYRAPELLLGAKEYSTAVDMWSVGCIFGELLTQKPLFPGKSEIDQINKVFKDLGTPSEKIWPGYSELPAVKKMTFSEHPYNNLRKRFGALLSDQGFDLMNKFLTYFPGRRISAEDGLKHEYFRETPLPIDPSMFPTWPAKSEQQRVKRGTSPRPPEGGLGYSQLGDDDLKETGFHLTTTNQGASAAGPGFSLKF
Sequence of Dual specificity protein kinase CLK2 (P49760 whole entry, looked up): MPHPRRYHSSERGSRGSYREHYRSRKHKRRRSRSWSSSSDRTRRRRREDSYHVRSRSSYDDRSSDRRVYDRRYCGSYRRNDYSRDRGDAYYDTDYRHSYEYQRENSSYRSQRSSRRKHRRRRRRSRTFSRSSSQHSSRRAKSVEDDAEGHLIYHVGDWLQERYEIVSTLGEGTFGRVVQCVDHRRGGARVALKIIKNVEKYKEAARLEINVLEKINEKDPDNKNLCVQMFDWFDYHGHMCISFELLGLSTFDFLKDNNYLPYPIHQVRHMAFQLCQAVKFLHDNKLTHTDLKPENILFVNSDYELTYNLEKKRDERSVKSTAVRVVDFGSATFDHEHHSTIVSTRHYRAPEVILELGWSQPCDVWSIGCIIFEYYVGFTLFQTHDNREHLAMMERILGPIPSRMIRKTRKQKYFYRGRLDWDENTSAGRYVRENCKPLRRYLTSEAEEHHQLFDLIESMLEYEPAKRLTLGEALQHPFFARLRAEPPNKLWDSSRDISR
Sequence of Dual specificity mitogen-activated protein kinase kinase 7 (Homo sapiens) (O14733 whole entry): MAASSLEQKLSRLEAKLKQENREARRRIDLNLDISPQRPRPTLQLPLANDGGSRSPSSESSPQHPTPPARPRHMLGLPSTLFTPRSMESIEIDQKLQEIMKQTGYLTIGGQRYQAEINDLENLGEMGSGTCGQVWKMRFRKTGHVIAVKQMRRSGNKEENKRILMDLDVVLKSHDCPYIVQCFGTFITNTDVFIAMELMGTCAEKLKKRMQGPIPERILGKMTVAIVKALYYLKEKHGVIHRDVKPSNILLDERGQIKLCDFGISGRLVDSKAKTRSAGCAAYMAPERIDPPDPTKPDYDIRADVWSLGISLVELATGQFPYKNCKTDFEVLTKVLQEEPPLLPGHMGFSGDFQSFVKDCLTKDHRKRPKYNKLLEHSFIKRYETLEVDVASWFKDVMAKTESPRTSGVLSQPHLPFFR
Sequence of Cyclin-dependent kinase 3 (Homo sapiens) (Q00526 whole entry, looked up): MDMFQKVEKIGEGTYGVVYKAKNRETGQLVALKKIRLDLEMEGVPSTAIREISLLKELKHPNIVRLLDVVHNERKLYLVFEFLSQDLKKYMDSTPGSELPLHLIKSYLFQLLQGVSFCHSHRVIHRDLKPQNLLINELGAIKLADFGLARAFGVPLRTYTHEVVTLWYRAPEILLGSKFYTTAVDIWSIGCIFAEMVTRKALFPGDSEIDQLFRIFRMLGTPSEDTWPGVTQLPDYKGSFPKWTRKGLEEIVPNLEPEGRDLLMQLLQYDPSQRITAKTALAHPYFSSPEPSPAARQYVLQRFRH

`C[C@H](NC(=O)Nc1cc2[nH]ncc2c(CO)n1)c1ccccn1` [ERKi-NC] showed a residual activity [1, 46] of 89.4%, a residual activity [2, 46] of 100% and an inhibition [3] of -1.84%. The residual activity [4, 46] was 94.1%, the residual activity [5, 46] was 100% and the residual activity [6, 46] was 100%. The residual activity [7, 46] was 100%, the residual activity [8, 46] was 100% and the inhibition [9] was 4.79%. It also gave a residual activity [10, 46] of 100%, a residual activity [11, 46] of 100% and a residual activity [12, 46] of 100%. It also gave a residual activity [13, 46] of 84.1%, a residual activity [14, 46] of 100% and a residual activity [15, 46] of 100%. The residual activity [16, 46] was 78.2%, the residual activity [17, 46] was 100% and the residual activity [18, 46] was 70.9%. The residual activity [19, 46] was 100%, the residual activity [20, 46] was 100% and the residual activity [21, 46] was 96%. It also gave a residual activity [22, 46] of 100%, a residual activity [23, 46] of 100% and a residual activity [24, 46] of 100%. The residual activity [25, 46] was 100%, the residual activity [26, 46] was 90.3% and the residual activity [27, 46] was 100%. It also gave a residual activity [28, 46] of 71.3%, a residual activity [29, 46] of 100% and a residual activity [30, 46] of 97.6%. It also gave a residual activity [31, 46] of 89.8%, a residual activity [32, 46] of 94.2% and a residual activity [33, 46] of 100%. The inhibition [34] was -8.5%, the residual activity [35, 46] was 77.7% and the residual activity [36, 46] was 100%. The residual activity [37, 46] was 100%, the residual activity [38, 46] was 100% and the residual activity [39, 46] was 98%. For the same molecule, the residual activity [40, 46] was 71.9%, the residual activity [41, 46] was 100% and the residual activity [42, 46] was 100%. It also gave a residual activity [43, 46] of 100%, a residual activity [44, 46] of 85.5% and a residual activity [45, 46] of 34.6%.

Work on `C[C@@H](NC(=O)Nc1cc2[nH]ncc2c(CO)n1)c1ccccc1` [ERKi] yielded a residual activity [1, 47] of 86.9%, a residual activity [2, 47] of 76.2% and an inhibition [3] of -5.17%. For the same molecule, the residual activity [4, 47] was 89.4%, the residual activity [5, 47] was 86.1% and the residual activity [6, 47] was 94.8%. For the same molecule, the residual activity [7, 47] was 72.1%, the residual activity [8, 47] was 100% and the inhibition [9] was 46.5%. It also gave a residual activity [10, 47] of 94.6%, a residual activity [11, 47] of 100% and a residual activity [12, 47] of 88.3%. For the same molecule, the residual activity [13, 47] was 97.9%, the residual activity [14, 47] was 91.2% and the residual activity [15, 47] was 100%. The residual activity [16, 47] was 90.3%, the residual activity [17, 47] was 79.6% and the residual activity [18, 47] was 95.2%. The residual activity [19, 47] was 88.7%, the residual activity [20, 47] was 98.2% and the residual activity [21, 47] was 100%. The residual activity [22, 47] was 97.7%, the residual activity [23, 47] was 68.5% and the residual activity [24, 47] was 97.6%. It also gave a residual activity [25, 47] of 100%, a residual activity [26, 47] of 89.9% and a residual activity [27, 47] of 100%. For the same molecule, the residual activity [28, 47] was 97.2%, the residual activity [29, 47] was 100% and the residual activity [30, 47] was 79.8%. The residual activity [31, 47] was 100%, the residual activity [32, 47] was 97.4% and the residual activity [33, 47] was 59.6%. For the same molecule, the inhibition [34] was 16.1%, the residual activity [35, 47] was 90.1% and the residual activity [36, 47] was 88%. It also gave a residual activity [37, 47] of 83.5%, a residual activity [38, 47] of 100% and a residual activity [39, 47] of 76.9%. It also gave a residual activity [40, 47] of 78.4%, a residual activity [41, 47] of 87.6% and a residual activity [42, 47] of 95.4%. It also gave a residual activity [43, 47] of 100%, a residual activity [44, 47] of 94.4% and a residual activity [45, 47] of 75.7%.
